Columns and labels:
hT2R3 = hT2R3 (Homo sapiens (Human), UniProt Q9NYW6); experiment: hT2R panel inhibition, transient HEK293 G16g44, agonist Chloroquine pH6.5 50 μM; assay type: cell-based; settings: HEK293, compound at 25 μM; receptor activated to EC80 with the corresponding agonist; read-out: screening result against bitter receptor 3
Procedure, shortened: (§1)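 Cells stably bearing the promiscuous G protein received one human T2R each by transient transfection and were assayed functionally. Ligands used at EC80; the test compound's inhibition equals the lowered activity.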

hT2R71 = hT2R71 (Homo sapiens (Human), UniProt P59536); experiment: hT2R panel inhibition, transient HEK293 G16g44, agonist Picric Acid 10 μM; assay type: cell-based; settings: HEK293, compound at 25 μM; receptor activated to EC80 with the corresponding agonist; read-out: screening result against bitter receptor 71
Procedure, shortened: as §1

hT2R64 = hT2R64 (Homo sapiens (Human), UniProt P59538); experiment: hT2R panel inhibition, transient HEK293 G16g44, agonist Aristolochic Acid 1 μM; assay type: cell-based; settings: HEK293, compound at 25 μM; receptor activated to EC80 with the corresponding agonist; read-out: screening result against bitter receptor 64
Procedure, shortened: as §1

hT2R44 = experiment: hT2R panel inhibition, transient HEK293 G16g44, agonist Denatonium 0.5 μM; assay type: cell-based, human; settings: compound at 25 μM; receptor activated to EC80 with the corresponding agonist
Procedure, shortened: as §1

hT2R14 [1] = biological target: T1, hT2R14 (Homo sapiens (Human), UniProt Q9NYV8); experiment: hT2R panel inhibition, transient HEK293 G16g44, agonist Aristolochic Acid 2 μM; assay type: cell-based; settings: HEK293, compound at 25 μM; receptor activated to EC80 with the corresponding agonist; read-out: screening result against bitter receptor 14
Procedure, shortened: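 Agonist challenge was at EC80, with 0.5 mM andrographolide on hT2R8 and 2 μM aristolochic acid on hT2R14. Inhibition was measured in functional assays in HEK293 cells that stably carry the promiscuous G protein G16g44 and were transiently transfected with the individual receptor.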

hT2R54 = experiment: hT2R panel inhibition, transient HEK293 G16g44, agonist Ranitidine 5 mM; assay type: cell-based, human; settings: compound at 25 μM; receptor activated to EC80 with the corresponding agonist
Procedure, shortened: as §1

hT2R65 = experiment: hT2R panel inhibition, transient HEK293 G16g44, agonist Oleuropein 1 mM; assay type: cell-based, human; settings: compound at 25 μM; receptor activated to EC80 with the corresponding agonist
Procedure, shortened: as §1

hT2R16 = hT2R16 (Homo sapiens (Human), UniProt Q9NYV7); experiment: hT2R panel inhibition, transient HEK293 G16g44, agonist Salicin 1 mM; assay type: cell-based; settings: HEK293, compound at 25 μM; receptor activated to EC80 with the corresponding agonist; read-out: screening result against bitter receptor 16
Procedure, shortened: as §1

hT2R55 = experiment: hT2R panel inhibition, transient HEK293 G16g44, agonist Cinchonine 150 μM; assay type: cell-based, human; settings: compound at 25 μM; receptor activated to EC80 with the corresponding agonist
Procedure, shortened: as §1

hT2R51 = hT2R51 (Homo sapiens (Human), UniProt P59533); experiment: hT2R panel inhibition, transient HEK293 G16g44, agonist Prop 2.5 μM; assay type: cell-based; settings: HEK293, compound at 25 μM; receptor activated to EC80 with the corresponding agonist; read-out: screening result against bitter receptor 51
Experimental: (§2) Specifically, in order to evaluate the inhibitory selectivity of the Compound C compound, this compound was tested against 22 human T2Rs which were deorphaned by Senomyx. These receptors and the bitter ligands that activate these human T2Rs are reported in earlier patent applications which are incorporated by reference herein. These 22 human T2Rs are hT2R1, 3, 4, 5, 7, 8, 9, 10, 13, 14, 16, 44, 51, 54, 55, 61, 63, 64, 65, 67, 71 and 75. The amino acid and nucleic acid sequences of all of these T2Rs may be found in these earlier patent applications. These human T2Rs were each individually transiently transfected into HEK293 cells that stably express the promiscuous G protein G16g44 and functional assays were effected using these receptors as disclosed in these same patent applications. […] The ligands were used at EC80 concentration levels. The list of bitter ligands utilized and the tested ligand concentrations are contained in Table 5 of this example.
(§3) Relating to the foregoing, FIG. 5 contains experimental results wherein Compound C was tested with different agonist compounds. The inhibition activity is represented by the reduction of receptor activity in the presence of Compound C. […] These 13 hT2Rs are hT2R3, 7, 10, 14, 16, 44, 51, 55, 61, 63, 64, 65, and 71.

hT2R67 = experiment: hT2R panel inhibition, transient HEK293 G16g44, agonist Andrographolide 5 μM; assay type: cell-based, human; settings: compound at 25 μM; receptor activated to EC80 with the corresponding agonist
Procedure, shortened: as §1

hT2R61 = hT2R61 (Homo sapiens (Human), UniProt P59537); experiment: hT2R panel inhibition, transient HEK293 G16g44, agonist Aristolochic Acid 25 nM; assay type: cell-based; settings: HEK293, compound at 25 μM; receptor activated to EC80 with the corresponding agonist; read-out: screening result against bitter receptor 61
Procedure, shortened: as §1

hT2R75 = hT2R75 (Homo sapiens (Human), UniProt P59540); experiment: hT2R panel inhibition, transient HEK293 G16g44, agonist Strychnine 1 μM; assay type: cell-based; settings: HEK293, read-out: screening result against bitter receptor 75, compound at 25 μM; receptor activated to EC80 with the corresponding agonist
Experimental: as §2, §3

hT2R5 = hT2R5 (Homo sapiens (Human), UniProt Q9NYW4); experiment: hT2R panel inhibition, transient HEK293 G16g44, agonist Picoline 10 mM; assay type: cell-based; settings: HEK293, compound at 25 μM; receptor activated to EC80 with the corresponding agonist; read-out: screening result against bitter receptor 5
Procedure, shortened: as §1

hT2R63 = experiment: hT2R panel inhibition, transient HEK293 G16g44, agonist Caffeine 1 mM or Andrographolide 100 μM; assay type: cell-based, human; settings: compound at 25 μM; receptor activated to EC80 with the corresponding agonist
Procedure, shortened: as §1

hT2R10 = hT2R10 (Homo sapiens (Human), UniProt Q9NYW0); experiment: hT2R panel inhibition, transient HEK293 G16g44, agonist Strychnine 50 μM; assay type: cell-based; settings: HEK293, read-out: screening result against bitter receptor 10, compound at 25 μM; receptor activated to EC80 with the corresponding agonist
hT2R7 = hT2R7 (Homo sapiens (Human), UniProt Q9NYW3); experiment: hT2R panel inhibition, transient HEK293 G16g44, agonist Chloroquine pH6.5 10 mM; assay type: cell-based; settings: HEK293, compound at 25 μM; receptor activated to EC80 with the corresponding agonist; read-out: screening result against bitter receptor 7
Procedure, shortened: as §1

hT2R14 [2] = biological target: T1, hT2R14; experiment: hT2R14 antagonist high-throughput FLIPR assay, stable cell line with G16g44, agonist aristolochic acid; assay type: cell-based; settings: read-out: IC50 on hT2R14 bitter receptor
Procedure, shortened: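 Compounds were co-applied with 3 μM aristolochic acid, a dose set to reach 70-80% of maximal hT2R14 activation. Read-out was FLIPR fluorescence in a stable HEK293 line co-expressing hT2R14 and G16g44.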

hT2R4 = hT2R4 (Homo sapiens (Human), UniProt Q9NYW5); experiment: hT2R panel inhibition, transient HEK293 G16g44, agonist Chloroquine pH6.5 5 mM; assay type: cell-based; settings: HEK293, compound at 25 μM; receptor activated to EC80 with the corresponding agonist; class symbols; read-out: screening result against bitter receptor 4
Experimental: as §2, §3

hT2R7, sequence (Q9NYW3 whole entry): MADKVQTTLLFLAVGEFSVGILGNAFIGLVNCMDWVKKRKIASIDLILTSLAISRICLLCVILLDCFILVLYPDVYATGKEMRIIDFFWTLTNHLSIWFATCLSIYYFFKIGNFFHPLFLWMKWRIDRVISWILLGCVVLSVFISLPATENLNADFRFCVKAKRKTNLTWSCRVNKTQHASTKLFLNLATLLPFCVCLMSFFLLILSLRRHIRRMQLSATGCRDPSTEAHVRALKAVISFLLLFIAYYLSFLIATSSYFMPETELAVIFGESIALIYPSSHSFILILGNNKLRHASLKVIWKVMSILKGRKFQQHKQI
hT2R10, sequence (Q9NYW0 whole entry): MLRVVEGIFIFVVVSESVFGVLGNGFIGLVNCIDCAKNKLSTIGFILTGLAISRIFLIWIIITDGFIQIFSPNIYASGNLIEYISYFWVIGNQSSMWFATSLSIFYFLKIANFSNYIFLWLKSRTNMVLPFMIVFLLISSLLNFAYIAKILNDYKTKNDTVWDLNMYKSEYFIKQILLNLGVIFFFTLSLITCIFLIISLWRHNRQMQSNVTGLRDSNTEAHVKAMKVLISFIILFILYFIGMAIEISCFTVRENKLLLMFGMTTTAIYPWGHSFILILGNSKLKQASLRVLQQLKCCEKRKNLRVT
hT2R75, sequence (P59540 whole entry): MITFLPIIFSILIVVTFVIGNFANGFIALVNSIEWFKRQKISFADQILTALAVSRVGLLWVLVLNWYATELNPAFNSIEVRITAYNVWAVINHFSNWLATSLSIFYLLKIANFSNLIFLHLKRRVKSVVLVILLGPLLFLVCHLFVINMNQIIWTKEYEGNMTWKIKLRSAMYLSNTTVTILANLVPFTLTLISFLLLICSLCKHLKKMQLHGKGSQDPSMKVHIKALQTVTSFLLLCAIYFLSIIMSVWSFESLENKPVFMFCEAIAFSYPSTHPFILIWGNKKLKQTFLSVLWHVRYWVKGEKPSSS
hT2R51, sequence (P59533 whole entry): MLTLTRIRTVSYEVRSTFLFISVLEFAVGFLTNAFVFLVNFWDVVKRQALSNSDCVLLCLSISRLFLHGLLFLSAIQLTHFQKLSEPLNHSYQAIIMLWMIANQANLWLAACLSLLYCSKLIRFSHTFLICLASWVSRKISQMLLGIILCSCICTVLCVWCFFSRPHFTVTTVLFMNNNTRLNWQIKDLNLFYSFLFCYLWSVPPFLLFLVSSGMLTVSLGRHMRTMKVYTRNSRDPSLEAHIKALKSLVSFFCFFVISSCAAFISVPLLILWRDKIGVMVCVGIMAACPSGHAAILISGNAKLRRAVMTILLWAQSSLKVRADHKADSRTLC
hT2R4, sequence (Q9NYW5 whole entry): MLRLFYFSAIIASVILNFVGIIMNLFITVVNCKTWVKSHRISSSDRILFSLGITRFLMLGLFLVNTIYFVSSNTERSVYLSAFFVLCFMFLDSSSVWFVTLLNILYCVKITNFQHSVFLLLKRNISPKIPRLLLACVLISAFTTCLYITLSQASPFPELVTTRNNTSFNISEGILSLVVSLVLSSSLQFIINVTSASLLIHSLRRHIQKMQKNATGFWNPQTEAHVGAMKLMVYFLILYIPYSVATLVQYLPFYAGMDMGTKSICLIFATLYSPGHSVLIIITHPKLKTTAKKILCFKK
hT2R71, sequence (P59536 whole entry): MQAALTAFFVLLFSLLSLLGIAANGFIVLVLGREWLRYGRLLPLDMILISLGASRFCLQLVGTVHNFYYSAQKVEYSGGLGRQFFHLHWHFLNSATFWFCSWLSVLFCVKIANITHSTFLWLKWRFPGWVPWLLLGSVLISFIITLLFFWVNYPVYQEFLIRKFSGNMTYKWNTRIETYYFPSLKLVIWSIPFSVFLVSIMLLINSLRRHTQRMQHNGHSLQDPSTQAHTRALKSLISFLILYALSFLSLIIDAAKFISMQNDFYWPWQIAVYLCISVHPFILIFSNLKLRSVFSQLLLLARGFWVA
hT2R64, sequence (P59538 whole entry): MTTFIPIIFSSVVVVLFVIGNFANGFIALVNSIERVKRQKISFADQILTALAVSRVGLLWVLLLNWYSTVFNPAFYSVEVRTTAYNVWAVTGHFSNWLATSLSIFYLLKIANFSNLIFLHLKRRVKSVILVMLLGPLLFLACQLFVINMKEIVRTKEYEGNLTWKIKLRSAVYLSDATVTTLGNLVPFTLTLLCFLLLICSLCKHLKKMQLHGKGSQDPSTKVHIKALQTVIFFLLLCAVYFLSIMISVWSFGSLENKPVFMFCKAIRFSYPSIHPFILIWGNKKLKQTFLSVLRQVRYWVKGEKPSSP
hT2R16, sequence (Q9NYV7 whole entry): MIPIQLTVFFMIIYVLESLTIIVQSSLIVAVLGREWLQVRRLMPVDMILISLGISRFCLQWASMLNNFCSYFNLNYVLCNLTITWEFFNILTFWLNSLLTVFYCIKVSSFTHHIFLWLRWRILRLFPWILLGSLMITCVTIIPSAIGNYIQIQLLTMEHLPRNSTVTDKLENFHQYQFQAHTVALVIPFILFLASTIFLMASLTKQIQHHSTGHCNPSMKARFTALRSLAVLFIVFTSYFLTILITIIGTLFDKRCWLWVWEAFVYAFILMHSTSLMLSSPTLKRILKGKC
hT2R3, sequence (Q9NYW6 whole entry): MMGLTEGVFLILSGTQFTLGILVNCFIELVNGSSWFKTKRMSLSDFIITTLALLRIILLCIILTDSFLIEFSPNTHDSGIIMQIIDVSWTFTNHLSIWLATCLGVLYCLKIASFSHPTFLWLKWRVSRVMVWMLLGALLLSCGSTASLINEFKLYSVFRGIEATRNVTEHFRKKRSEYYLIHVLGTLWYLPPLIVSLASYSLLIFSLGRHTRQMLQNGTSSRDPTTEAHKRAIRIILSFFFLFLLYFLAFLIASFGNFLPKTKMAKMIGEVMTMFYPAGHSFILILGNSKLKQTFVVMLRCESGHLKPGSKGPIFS
T1 sequence (Q9NYV8 whole entry): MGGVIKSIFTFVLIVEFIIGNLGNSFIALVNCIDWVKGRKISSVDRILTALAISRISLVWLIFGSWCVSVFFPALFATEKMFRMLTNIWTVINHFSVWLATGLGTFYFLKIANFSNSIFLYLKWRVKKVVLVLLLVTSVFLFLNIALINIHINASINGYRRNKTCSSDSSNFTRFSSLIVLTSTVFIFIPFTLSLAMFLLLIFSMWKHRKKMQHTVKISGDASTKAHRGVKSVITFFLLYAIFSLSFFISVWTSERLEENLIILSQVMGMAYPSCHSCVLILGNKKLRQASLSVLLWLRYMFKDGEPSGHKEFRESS
hT2R61, sequence (P59537 whole entry): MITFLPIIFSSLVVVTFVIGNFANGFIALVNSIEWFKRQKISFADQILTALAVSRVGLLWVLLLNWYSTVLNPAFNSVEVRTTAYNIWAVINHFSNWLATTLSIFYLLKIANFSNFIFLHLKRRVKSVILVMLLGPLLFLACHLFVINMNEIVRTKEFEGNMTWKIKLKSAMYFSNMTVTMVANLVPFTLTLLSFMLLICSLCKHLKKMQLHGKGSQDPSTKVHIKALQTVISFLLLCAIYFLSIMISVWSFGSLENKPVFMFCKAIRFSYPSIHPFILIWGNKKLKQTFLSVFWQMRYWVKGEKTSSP
hT2R5, sequence (Q9NYW4 whole entry): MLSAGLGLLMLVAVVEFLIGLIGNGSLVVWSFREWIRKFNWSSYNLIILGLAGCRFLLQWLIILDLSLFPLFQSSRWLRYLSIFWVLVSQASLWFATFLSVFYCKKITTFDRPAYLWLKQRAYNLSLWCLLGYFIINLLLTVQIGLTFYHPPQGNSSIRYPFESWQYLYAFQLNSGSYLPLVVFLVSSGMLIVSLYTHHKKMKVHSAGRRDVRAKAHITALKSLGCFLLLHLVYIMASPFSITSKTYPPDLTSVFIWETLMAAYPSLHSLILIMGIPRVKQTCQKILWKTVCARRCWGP

Compound | inhibition at 25 µM (hT2R3) | inhibition at 25 µM (hT2R71) | inhibition at 25 µM (hT2R64) | screening result against bitter receptor 44 (hT2R44) | inhibition at 25 µM (hT2R14 [1]) | screening result against bitter receptor 54 (hT2R54) | screening result against bitter receptor 65 (hT2R65) | inhibition at 25 µM (hT2R16) | screening result against bitter receptor 55 (hT2R55) | inhibition at 25 µM (hT2R51) | screening result against bitter receptor 67 (hT2R67) | inhibition at 25 µM (hT2R61) | inhibition at 25 µM (hT2R75) | inhibition at 25 µM (hT2R5) | screening result against bitter receptor 63 (hT2R63) | inhibition at 25 µM (hT2R10) | inhibition at 25 µM (hT2R7) | IC50 (hT2R14 [2]) | inhibition at 25 µM (hT2R4)
COc1ccc(CN(Cc2ccccc2Cl)S(=O)(=O)c2ccc(C(=O)O)cc2)cc1 [Example 5-68, 4-(N-(2-chlorobenzyl)-N-(4-methoxybenzyl)sulfamoyl)benzoic acid] | 20 to 40% | 60 to 80% | 60 to 80% | ++ (40% to 60% inhibition = ++) | > 80% | + (20% to 40% inhibition = +) | + (20% to 40% inhibition = +) | 20 to 40% | ++++ (80% or greater inhibition = ++++) | 20 to 40% | + (20% to 40% inhibition = +) | 60 to 80% | 20 to 40% | 40 to 60% | ++++ (80% or greater inhibition = ++++) | 20 to 40% | 20 to 40% |  | 
CC(=O)Nc1ccc(S(=O)(=O)N(Cc2ccccc2)CC2CCC(C(=O)O)CC2)cc1 (centres unmarked) [Example 5-21, 4-((4-acetamido-N-benzylphenylsulfonamido)methyl)-cyclohexanecarboxylic acid] | 20 to 40% | 20 to 40% | 20 to 40% | ++ (40% to 60% inhibition = ++) | > 80% |  |  | 20 to 40% | + (20% to 40% inhibition = +) |  |  | 60 to 80% |  |  | +++ (60% to 80% inhibition = +++) |  |  | 1620 nM | 20 to 40%
COc1cccc(CN(Cc2ccc(C(=O)O)cc2)S(=O)(=O)c2ccc(O)cc2)c1 [Example 5-43, 4-((4-hydroxy-N-(3-methoxybenzyl)phenylsulfonamido)methyl)-benzoic acid] | 20 to 40% | 40 to 60% | 60 to 80% | + (20% to 40% inhibition = +) | > 80% |  |  | 20 to 40% | + (20% to 40% inhibition = +) |  |  | > 80% |  |  | ++++ (80% or greater inhibition = ++++) |  |  | 188 nM | 20 to 40%
COc1ccc(CN(Cc2ccccc2OC)S(=O)(=O)c2ccc(C(=O)O)cc2)cc1 [Example 5-58, 4-(N-(2-methoxybenzyl)-N-(4-methoxybenzyl)sulfamoyl)benzoic acid] | 60 to 80% | > 80% | 60 to 80% | +++ (60% to 80% inhibition = +++) | > 80% | +++ (60% to 80% inhibition = +++) | ++++ (80% or greater inhibition = ++++) | 20 to 40% | +++ (60% to 80% inhibition = +++) | 20 to 40% | + (20% to 40% inhibition = +) | > 80% | 20 to 40% | 20 to 40% | ++++ (80% or greater inhibition = ++++) | 60 to 80% | 60 to 80% |  | 
O=C(O)C1CCC(CN(Cc2ccc(F)cc2)S(=O)(=O)c2ccccn2)CC1 (centres unmarked) [Example 5-53, 4-((N-(4-fluorobenzyl)pyridine-2-sulfonamido)methyl)cyclohexanecarboxylic acid] |  | 20 to 40% | 40 to 60% |  | 40 to 60% |  |  |  |  |  |  |  |  |  | ++ (40% to 60% inhibition = ++) |  | 20 to 40% |  | 20 to 40%
COc1ccccc1CN(Cc1ccccc1)S(=O)(=O)c1ccc(C(=O)O)cc1 [Example 5-71, 4-(N-benzyl-N-(2-methoxybenzyl)sulfamoyl)benzoic acid] | 20 to 40% | 40 to 60% | 20 to 40% |  | > 80% | +++ (60% to 80% inhibition = +++) | ++ (40% to 60% inhibition = ++) | 20 to 40% | ++ (40% to 60% inhibition = ++) | 40 to 60% | + (20% to 40% inhibition = +) | > 80% | 20 to 40% | 20 to 40% | ++++ (80% or greater inhibition = ++++) | 20 to 40% | 20 to 40% |  | 
COc1ccc(CN2C(=O)N(c3ccc(C(=O)O)cc3)C(=O)C2Cc2ccccc2)cc1 (centres unmarked) [Example 5-98, 4-(4-benzyl-3-(4-methoxybenzyl)-2,5-dioxoimidazolidin-1-yl)benzoic acid] | 20 to 40% |  | 60 to 80% | +++ (60% to 80% inhibition = +++) |  |  |  |  | ++++ (80% or greater inhibition = ++++) |  |  | > 80% |  |  |  |  |  |  | 40 to 60%
O=C(O)c1ccc(S(=O)(=O)N(Cc2ccccc2)Cc2ccccc2Cl)cc1 [Example 5-83, 4-(N-benzyl-N-(2-chlorobenzyl)sulfamoyl)benzoic acid] | 40 to 60% | 20 to 40% | 20 to 40% | + (20% to 40% inhibition = +) | > 80% | ++ (40% to 60% inhibition = ++) | +++ (60% to 80% inhibition = +++) | 40 to 60% | +++ (60% to 80% inhibition = +++) | 20 to 40% | ++ (40% to 60% inhibition = ++) | > 80% | 40 to 60% | 20 to 40% | +++ (60% to 80% inhibition = +++) | 40 to 60% | 20 to 40% |  | 

From patent US9247759B2, “Identification of human T2R receptors that respond to bitter compounds that elicit the bitter taste in compositions, and the use thereof in assays to identify compounds that inhibit (block) bitter taste in compositions and use thereof” (SENOMYX, INC., priority 2007, dated 2016)
